Test results as given in patent US20250313574A1, “SIALIC ACID DERIVATIVES AND METHODS OF USING SAME” (EISAI R&D MANAGEMENT CO., LTD., priority 2022, published 2025).

Tests used:
[1] = target: Recombinant Human Siglec-3/CD33 protein (His-CD33) (Homo sapiens (Human), UniProt P20138); test: Differential scanning fluorimetry (DSF) thermal shift assay; type: binding
[2] = target: Recombinant human CD33 protein (Homo sapiens (Human), UniProt P20138); test: CD33 competitive binding assay for HTS drug screen (fluorescent multivalent sialic acid probe)
Recombinant human CD33 protein, sequence (P20138 18-259): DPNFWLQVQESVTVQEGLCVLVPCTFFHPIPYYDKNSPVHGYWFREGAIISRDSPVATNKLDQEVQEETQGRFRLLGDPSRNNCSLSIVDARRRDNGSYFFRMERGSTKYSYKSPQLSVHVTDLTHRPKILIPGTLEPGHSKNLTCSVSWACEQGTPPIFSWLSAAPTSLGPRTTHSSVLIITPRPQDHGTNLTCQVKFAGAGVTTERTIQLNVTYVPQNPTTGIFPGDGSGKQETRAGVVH
How it was run: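 Recombinant human CD33, coated overnight at 4° C from 10 μg/ml in pH 5.5 acetate, was preincubated briefly with compound. It was then exposed to a multivalent neutravidin/FITC/sialic acid analog A-375 probe (final 5 μM neutravidin, 15 μM A-375, 5 μM FITC) for 30 min at room temperature. After washing, bound FITC fluorescence was read.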

[3] = thermal melt shift of 0.5 μM CD33 protein with 50 μM compound
[4] = difference in thermal melt of CD33 protein (0.5 μM) with 50 μM compound

Recombinant Human Siglec-3/CD33 protein (His-CD33), sequence (P20138 18-259): as above

SMILES | DSF (dTmD) [1, 3] | EC50 [2] [nM] | DSF (dTmD) [1, 4] [°C]
CC(=O)N[C@H]1[C@H]([C@H](O)[C@H](O)CNC(=O)c2c[nH]nc2C(F)(F)F)O[C@@](CCN2CCOC[C@@]23CCN(C(=O)OC(C)(C)C)C3)(C(=O)O)C[C@@H]1O [A-175] | 4.6 | 4110 | –
CC(=O)N[C@H]1[C@H]([C@H](O)[C@H](O)CNC(=O)c2cc(C)c(O)c(C)c2)O[C@@](CCN2CCOC[C@@]23CCN(C(=O)NC(C)(C)C)C3)(C(=O)O)C[C@@H]1O [A-042] | 13.3 | 12 | –
CC(=O)N[C@H]1[C@H]([C@H](O)[C@H](O)CNC(=O)c2cc(C)c(O)c(C)c2)O[C@@](CCN2CCOC[C@@]23CCN(C(=O)C2CCCC2)C3)(C(=O)O)C[C@@H]1O [A-060] | 11.2 | 65 | –
C=C[C@H]1CN(C(=O)OC(C)(C)C)C[C@@]1(C)NCC[C@]1(C(=O)O)C[C@H](O)[C@@H](NC(C)=O)[C@H]([C@H](O)[C@H](O)CNC(=O)c2cc(C)c(O)c(C)c2)O1 [A-034] | 6.7 | 880 | –
CC(=O)N[C@H]1[C@H]([C@H](O)[C@H](O)CNC(=O)c2cc(C)c(O)c(C)c2)O[C@@](C/C=C/c2cccc(CNC(=O)c3ccc4[nH]ccc4c3)c2)(C(=O)O)C[C@@H]1O [A-242] | – | 502 | 7.6
CC(=O)N[C@H]1[C@H]([C@H](O)[C@H](O)CNC(=O)c2cc(C)c(O)c(C)c2)O[C@@](CCN2CCOC[C@@]23CCN(C(=O)NCc2ccccc2)C3)(C(=O)O)C[C@@H]1O [A-079] | 9.1 | 152 | –
CC(=O)N[C@H]1[C@H]([C@H](O)[C@H](O)CNC(=O)c2cc(C)c(O)c(C)c2)O[C@@](C/C=C/c2cccc(CNC(=O)c3ccc4[nH]c(-c5cccn5-c5ncccn5)nc4c3)c2)(C(=O)O)C[C@@H]1O [A-252] | – | 578 | 7.6
CC(=O)N[C@H]1[C@H]([C@H](O)[C@H](O)CNC(=O)c2cc(C)c(O)c(C)c2)O[C@@](C/C=C/c2cccc(CNC(=O)C3CCCOC3)c2)(C(=O)O)C[C@@H]1O (some centres unmarked) [A-293] | – | 7940 | 4.2
COC(=O)[C@@]1(CCN2CCOC[C@@]23CCN(C(=O)OC(C)(C)C)C3)CCC[C@H](C[C@H](O)CNC(=O)c2cc(C)c3[nH]ccc3c2)O1 [A-207] | – | 3750 | 5.0
Cc1cc(C(=O)NC[C@@H](O)[C@@H](O)[C@@H]2O[C@@](C/C=C/c3cccc(CNC(=O)C4CCCOC4)c3)(C(=O)O)C[C@H](O)[C@H]2NC(=O)Cn2cc(C3CCCCC3)nn2)cc(C)c1O (some centres unmarked) [A-268] | – | 1320 | 6.2
CC(=O)N[C@H]1[C@H]([C@H](O)[C@H](O)CNC(=O)c2cc(Cl)c(O)c(Cl)c2)O[C@@](CC2OC(C)(C)O[C@H]2c2cccc(C(=O)NCc3ccccc3)c2)(C(=O)O)C[C@@H]1O (some centres unmarked) [A-321] | – | 220 | 7.2
CC(=O)N[C@H]1[C@H]([C@H](O)[C@H](O)CNC(=O)c2cc(C)c(O)c(C)c2)O[C@@](CCN2CCOC[C@@]23CCN(C(=O)N[C@H](C)c2ccccc2)C3)(C(=O)O)C[C@@H]1O [A-047] | 12.9 | 22 | –
CC(=O)N[C@H]1[C@H]([C@H](O)[C@H](O)CNC(=O)c2cc(C)c(O)c(C)c2)O[C@@](C/C=C/c2cccc(CNC(=O)C3CCCC(Nc4ccc(C)cn4)C3)c2)(C(=O)O)C[C@@H]1O (some centres unmarked) [A-259] | – | 5810 | 3.1
Cc1cc(C(=O)NC[C@@H](O)[C@@H](O)[C@@H]2O[C@@](C/C=C/c3cccc(CNC(=O)C4CCC(NS(C)(=O)=O)CC4)c3)(C(=O)O)C[C@H](O)[C@H]2NC(=O)Cn2cc(C3CCCCC3)nn2)cc(C)c1O (some centres unmarked) [A-281] | – | 1520 | 6.9
CC(=O)N[C@H]1[C@H]([C@H](O)[C@H](O)CNC(=O)c2cc(C)c(O)c(C)c2)O[C@@](C[C@H]2COC[C@@]3(CCN(C(=O)NC(C)(C)C)C3)N2)(C(=O)O)C[C@@H]1O [A-228] | – | 14 | 13.4
CC(=O)N[C@H]1[C@H]([C@H](O)[C@H](O)CNC(=O)c2cc(C)c(O)c(C)c2)O[C@@](C/C=C/c2cnc(CNC(=O)C3CCCOC3)s2)(C(=O)O)C[C@@H]1O (some centres unmarked) [A-294] | – | 4610 | 4.2
CC(=O)N[C@H]1[C@H]([C@H](O)[C@H](O)CNC(=O)c2ccc3[nH]ccc3c2)O[C@@](CCN2CCOC[C@@]23CCN(C(=O)OC(C)(C)C)C3)(C(=O)O)C[C@@H]1O [A-129] | 15.0 | 10 | –

SMILES | DSF (dTmD) [1, 3] | EC50 [2] [nM] | DSF (dTmD) [1, 4] [°C]
CC(=O)N[C@H]1[C@H]([C@H](O)[C@H](O)CNC(=O)c2ccc(O)c(C(F)(F)F)c2)O[C@@](CCN2CCOC[C@@]23CCN(C(=O)OC(C)(C)C)C3)(C(=O)O)C[C@@H]1O [A-147] | 10.6 | 127 | –
CC(=O)N[C@H]1[C@H]([C@H](O)[C@H](O)CNC(=O)c2cc(C)c(O)c(C)c2)O[C@@](C[C@@H]2COCC3(CCN(C(=O)OC(C)(C)C)CC3)N2)(C(=O)O)C[C@@H]1O [A-230] | – | 10600 | 1.1
CC(=O)N[C@H]1[C@H]([C@H](O)[C@H](O)CNC(=O)c2ccc(N3CCN(C)CC3)cc2)O[C@@](CCN2CCOC[C@@]23CCN(C(=O)OC(C)(C)C)C3)(C(=O)O)C[C@@H]1O [A-143] | 7.8 | 334 | –
CC(=O)N[C@H]1[C@H]([C@H](O)[C@H](O)CNC(=O)c2cccc(SC(F)(F)F)c2)O[C@@](CCN2CCOC[C@@]23CCN(C(=O)OC(C)(C)C)C3)(C(=O)O)C[C@@H]1O [A-169] | 6.2 | 4720 | –
CC(=O)N[C@H]1[C@H]([C@H](O)[C@H](O)CNC(=O)c2cc(C)c(O)c(C)c2)O[C@@](C/C=C/c2cccc(CN(C)C(=O)C3CCCOC3)c2)(C(=O)O)C[C@@H]1O (some centres unmarked) [A-292] | – | 3020 | 4.0
CCN(CC)C(=O)N1CC[C@@]2(COCCN2CC[C@]2(C(=O)O)C[C@H](O)[C@@H](NC(C)=O)[C@H]([C@H](O)[C@H](O)CNC(=O)c3cc(C)c(O)c(C)c3)O2)C1 [A-066] | 8.4 | 156 | –
CC(=O)N[C@H]1[C@H]([C@H](O)[C@H](O)CNC(=O)c2cc(C)c(O)c(C)c2)O[C@@](CCN2CCOC[C@@]23CCN(c2ccccn2)C3)(C(=O)O)C[C@@H]1O [A-037] | 9.6 | 39 | –
CC(=O)N[C@H]1[C@H]([C@H](O)[C@H](O)CNC(=O)c2cc(C)c(O)c(C)c2)O[C@@](CCN2CCOC[C@@]23CCN(C(=O)NC(C)C(F)(F)F)C3)(C(=O)O)C[C@@H]1O (some centres unmarked) [A-044] | 11.5 | 19 | –
CC(=O)N[C@H]1[C@H]([C@H](O)[C@H](O)CNC(=O)c2cc(C)c(O)c(C)c2)O[C@@](CC2OC(C)(C)O[C@H]2c2cccc(CC(=O)OC(C)(C)C)c2)(C(=O)O)C[C@@H]1O (some centres unmarked) [A-315] | – | 1140 | 4.2
CC(=O)N[C@H]1[C@H]([C@H](O)[C@H](O)CNC(=O)c2cc(C)c(O)c(C)c2)O[C@@](CCN2CCN(C)C[C@@]23CCN(C(=O)OC(C)(C)C)C3)(C(=O)O)C[C@@H]1O [A-010] | 13.5 | 15 | –
CC(=O)N[C@H]1[C@H]([C@H](O)[C@H](O)CNC(=O)c2cc(C)c(O)c(C)c2)O[C@@](CC2OC(C)(C)O[C@H]2c2cccc3c2CN(C(=O)OC(C)(C)C)C3)(C(=O)O)C[C@@H]1O (some centres unmarked) [A-314] | – | 7850 | 0.1
CC(=O)N[C@H]1[C@H]([C@H](O)[C@H](O)CNC(=O)c2cc(C)c(O)c(C)c2)O[C@@](CCN2CCOC[C@@]23CCN(c2cnccn2)C3)(C(=O)O)C[C@@H]1O [A-040] | 6.3 | 363 | –
CC(=O)N[C@H]1[C@H]([C@H](O)[C@H](O)CNC(=O)c2cc(C)c(O)c(C)c2)O[C@@](C/C=C/c2ccccc2CNC(=O)C2CCCOC2)(C(=O)O)C[C@@H]1O (some centres unmarked) [A-233] | – | 8990 | 3.0
CC(=O)N[C@H]1[C@H]2O[C@](C(=O)O)(C/C=C/COC[C@@H](NC(=O)[C@H]3CCCOC3)COCCCOc3c(C)cc(cc3C)C(=O)NC[C@@H](O)[C@H]2O)C[C@@H]1O [A-337] | – | 14100 | 2.2
Cc1cc2cc(C)c1OCCCOC[C@H](NC(=O)C1CCCOC1)COC/C=C/C[C@]1(C(=O)O)C[C@H](O)[C@@H](NC(=O)Cn3cc(C4CCCCC4)nn3)[C@@H](O1)[C@H](O)[C@H](O)CNC2=O (some centres unmarked) [A-335] | – | 601 | 6.4
CC(=O)N[C@H]1[C@H]([C@H](O)[C@H](O)CNC(=O)c2cc(C)c(O)c(C)c2)O[C@@](C/C=C/C2(C)CCN(C(=O)OC(C)(C)C)C2)(C(=O)O)C[C@@H]1O (some centres unmarked) [A-195] | 10.8 | 42 | –
Cc1ccc(CN(C)C(=O)C2CCCOC2)cc1/C=C/C[C@]1(C(=O)O)C[C@H](O)[C@@H](NC(=O)Cn2cc(C3CCCCC3)nn2)[C@H]([C@H](O)[C@H](O)CNC(=O)c2cc(C)c(O)c(C)c2)O1 (some centres unmarked) [A-287] | – | 1160 | 6.0
